Experiments:
Assay type in all cases: in vivo, rat
[1] = test system: male rats; test: ELISA of urinary Tamm Horsfall protein (THP) in rats treated with kidney toxicants; conditions: urine
Experimental: (§1) The biomarkers of the present invention can be measured in blood or urine during testing of a novel therapeutic compound. […] ELISA antibody assays are used to evaluate changes in protein levels.
(§2) Antibodies were purchased or made and ELISA assays were performed to measure the levels of four Kidney Toxicity Biomarker proteins in urine. The proteins are TFF3; Tarnm Horsfall protein (THP); neutrophil gelatinase-associated lipocalin (NGAL) and albumin.

[2] = test system: male rats; test: ELISA of urinary NGAL in rats treated with kidney toxicants; conditions: urine
Experimental: as §1, §2

[3] = test system: male rats; test: Histopathologically-assessed kidney toxicity in rats
[4] = test system: male rats; test: ELISA of urinary TFF3 in rats treated with kidney toxicants; conditions: urine
Experimental: as §1, §2

[5] = test system: male rats; test: ELISA of urinary albumin in rats treated with kidney toxicants; conditions: urine
Experimental: as §1, §2

[6] = gentamicin 20 mg/Kg/Day, Day 15
[7] = gentamicin 80 mg/Kg/Day, Day 15
[8] = gentamicin 240 mg/Kg/Day, Day 3
[9] = gentamicin 240 mg/Kg/Day, Day 9
[10] = gentamicin 240 mg/Kg/Day, Day 12

Gentamicin
THP ([1]; gentamicin 20 mg/Kg/Day, Day 3): 4.1 µg/mL | THP ([1]; gentamicin 20 mg/Kg/Day, Day 9): 4.5 µg/mL | THP [1, 6]: 4.4 µg/mL | THP ([1]; gentamicin 80 mg/Kg/Day, Day 3): 3.4 µg/mL | THP ([1]; gentamicin 80 mg/Kg/Day, Day 9): 3.1 µg/mL | THP [1, 7]: 3.9 µg/mL | THP [1, 8]: 3.2 µg/mL | THP [1, 9]: 1.3 µg/mL | THP [1, 10]: 1.9 µg/mL | NGAL ([2]; gentamicin 20 mg/Kg/Day, Day 3): 14 µg/mL | NGAL ([2]; gentamicin 20 mg/Kg/Day, Day 9): 15 µg/mL | NGAL [2, 6]: 15 µg/mL | NGAL ([2]; gentamicin 80 mg/Kg/Day, Day 3): 13 µg/mL | NGAL ([2]; gentamicin 80 mg/Kg/Day, Day 9): 14 µg/mL | NGAL [2, 7]: 20 µg/mL | NGAL [2, 8]: 17 µg/mL | NGAL [2, 9]: 13 µg/mL | NGAL [2, 10]: 25 µg/mL | Histopathology Score [3, 6]: <1 | Histopathology Score ([3]; gentamicin 80 mg/Kg/Day, Day 3): <1 | Histopathology Score [3, 7]: 2 | Histopathology Score [3, 8]: <1 | Histopathology Score [3, 9]: 4 | Histopathology Score [3, 10]: 5 | TFF3 ([4]; gentamicin 20 mg/Kg/Day, Day 3): 634 ng/mL | TFF3 ([4]; gentamicin 20 mg/Kg/Day, Day 9): 202 ng/mL | TFF3 [4, 6]: 265 ng/mL | TFF3 ([4]; gentamicin 80 mg/Kg/Day, Day 3): 280 ng/mL | TFF3 ([4]; gentamicin 80 mg/Kg/Day, Day 9): 121 ng/mL | TFF3 [4, 7]: 69 ng/mL | TFF3 [4, 8]: 132 ng/mL | TFF3 [4, 9]: 1.3 ng/mL | TFF3 [4, 10]: 29 ng/mL | Albumin ([5]; gentamicin 20 mg/Kg/Day, Day 3): 14 µg/mL | Albumin ([5]; gentamicin 20 mg/Kg/Day, Day 9): 7 µg/mL | Albumin [5, 6]: 13 µg/mL | Albumin ([5]; gentamicin 80 mg/Kg/Day, Day 3): 221 µg/mL | Albumin ([5]; gentamicin 80 mg/Kg/Day, Day 9): 190 µg/mL | Albumin [5, 7]: 22 µg/mL | Albumin [5, 8]: 129 µg/mL | Albumin [5, 9]: 534 µg/mL | Albumin [5, 10]: 502 µg/mL
